Data as given in patent US20110301142A1, “ANTAGONISTS OF LYSOPHOSPHATIDIC ACID RECEPTORS” (priority 2008, published 2011).

Molecular target: T1, human LPA1 (Homo sapiens, UniProt Q92633)
T1 construct: the full-length cDNA for human LPA1 was obtained by PCR of the reverse transcription reaction; expressed in transfected cells
Test: LPA1 calcium flux assay (HLPA1 Ca Flux)
Format: cell-based
Details: Human LPA1 expressing CHO cells, stimulated with 10 nM LPA
Description: A 1.1 kb cDNA encoding the human LPA1 receptor was cloned from human lung. Human lung RNA (Clontech Laboratories, Inc. USA) was reverse transcribed using the RETROscript kit (Ambion, Inc.) and the full-length cDNA for human LPA1 was obtained by PCR of the reverse transcription reaction. The nucleotide sequence of the cloned human LPA1 was determined by sequencing and confirmed to be identical to the published human LPA1 sequence (An et al. Biochem. Biophys. Res. Commun. 231:619 (1997). The cDNA was cloned into the pcDNAS/FRT expression plasmid and transfected in CHO cells using lipofectamine 2000 (Invitrogen Corp., USA). Clones stably expressing human LPA1 were selected using hygromycin and identified as cells that show Ca-influx in response to LPA.
Human LPA1 or LPA3 expressing CHO cells are seeded at 20,000-45,000 cells per well in a 96-well poly-D-lysine coated plate one or two days before the assay. Prior to the assay, the cells are washed once with PBS and then cultured in serum-free media overnight. On the day of the assay, a calcium indicator dye (Calcium 4, Molecular Devices) in assay buffer (HBSS with Ca^2+ and Mg^2+ and containing 20 mM Hepes and 0.3% fatty-acid free human serum albumin) is added to each well and incubation continued for 1 hour at 37° C. 10 μl of test compounds in 2.5% DMSO are added to the cells and incubation continued at room temperature for 30 minutes. Cells are the stimulated by the addition of 10 nM LPA and intracellular Ca^2+ measured using the Flexstation 3 (Molecular Devices). IC50s are determined using Graphpad prism analysis of drug titration curves.

T1 sequence (Q92633 whole entry): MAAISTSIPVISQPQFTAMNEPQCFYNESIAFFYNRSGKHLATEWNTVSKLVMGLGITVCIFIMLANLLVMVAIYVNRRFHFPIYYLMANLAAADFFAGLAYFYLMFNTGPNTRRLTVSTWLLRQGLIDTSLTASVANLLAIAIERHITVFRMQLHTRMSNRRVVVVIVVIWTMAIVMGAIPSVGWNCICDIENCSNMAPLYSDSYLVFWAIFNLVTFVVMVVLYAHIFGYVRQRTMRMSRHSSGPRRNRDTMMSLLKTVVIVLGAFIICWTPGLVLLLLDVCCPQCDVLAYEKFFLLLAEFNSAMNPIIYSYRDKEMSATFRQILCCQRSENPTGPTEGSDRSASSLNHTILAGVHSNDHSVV

| Structure (SMILES) | IC50 |
| --- | --- |
| Cc1noc(-c2ccc(Cc3cccc(C(=O)O)c3)cc2)c1NC(=O)OCc1ccccc1Br [Compound 1-6, 3-{4-[4-(2-Bromo-benzyloxycarbonylamino)-3-methyl-isoxazol-5-yl]-benzyl}-benzoic acid] | 1000 to 50000 nM |
| Cc1noc(-c2ccc(-c3cccc(C(=O)O)c3)cc2)c1NC(=O)O[C@H](C)c1ccccn1 [Compound 1-11] | 1000 to 50000 nM |
| Cc1cccc(COC(=O)Nc2c(C)noc2-c2ccc(-c3cccc(C(=O)O)c3)cc2)n1 [Compound 1-13, 4′-[3-Methyl-4-(6-methyl-pyridin-2-ylmethoxycarbonylamino)-isoxazol-5-yl]-biphenyl-3-carboxylic acid] | 1000 to 50000 nM |
| Cc1noc(-c2ccc(-c3cccc(C(=O)O)c3)cc2)c1NC(=O)OC1CCc2ccccc21 (centres unmarked) [Compound 1-16, 4′-[4-(Indan-1-yloxycarbonylamino)-3-methyl-isoxazol-5-yl]-biphenyl-3-carboxylic acid] | > 50000 nM |
| Cc1noc(-c2cccc(-c3cncc(C(=O)O)c3)c2)c1NC(=O)OC(C)c1ccccc1Cl (centres unmarked) [Compound 1-37, 5-(3-{4-[1-(2-Chloro-phenyl)-ethoxycarbonylamino]-3-methyl-isoxazol-5-yl}-phenyl)-nicotinic acid] | 1000 to 50000 nM |
| COc1ncc(CC(=O)O)cc1-c1cccc(-c2onc(C)c2NC(=O)OC(C)c2ccccc2Cl)c1 (centres unmarked) [Compound 1-38, [5-(3-{4-[1-(2-Chloro-phenyl)-ethoxycarbonylamino]-3-methyl-isoxazol-5-yl}-phenyl)-6-methoxy-pyridin-3-yl]acetic acid] | 1000 to 50000 nM |
| Cc1noc(-c2cccc(-c3ccc(CC(=O)O)cc3)c2)c1NC(=O)OC(C)c1ccccc1Cl (centres unmarked) [Compound 1-39, (3′-{4-[1-(2-Chloro-phenyl)-ethoxycarbonylamino]-3-methyl-isoxazol-5-yl}-biphenyl-4-yl)-acetic acid] | 1000 to 50000 nM |
| Cc1noc(-c2cccc(-c3ccc4c(ccn4CC(=O)O)c3)c2)c1NC(=O)OC(C)c1ccccc1Cl (centres unmarked) [Compound 1-40, [5-(3-{4-[1-(2-Chloro-phenyl)-ethoxycarbonylamino]-3-methyl-isoxazol-5-yl}-phenyl)-indol-1-yl]-acetic acid] | > 50000 nM |
| Cc1noc(-c2cccc(-c3cncc(CC(=O)O)c3)c2)c1NC(=O)OC(C)c1ccccc1Cl (centres unmarked) [Compound 1-41, [5-(3-{4-[1-(2-Chloro-phenyl)-ethoxycarbonylamino]-3-methyl-isoxazol-5-yl}-phenyl)-pyridin-3-yl]acetic acid] | 1000 to 50000 nM |
| Cc1noc(-c2cccc(-c3cc(CC(=O)O)ccc3F)c2)c1NC(=O)OC(C)c1ccccc1Cl (centres unmarked) [Compound 1-42, (3′-{4-[1-(2-Chloro-phenyl)-ethoxycarbonylamino]-3-methyl-isoxazol-5-yl}-6-fluoro-biphenyl-3-yl)-acetic acid] | 1000 to 50000 nM |
| Cc1noc(-c2cccc(-c3ccc(F)c(CC(=O)O)c3)c2)c1NC(=O)OC(C)c1ccccc1Cl (centres unmarked) [Compound 1-43, (3′-{4-[1-(2-Chloro-phenyl)-ethoxycarbonylamino]-3-methyl-isoxazol-5-yl}-4-fluoro-biphenyl-3-yl)-acetic acid] | 1000 to 50000 nM |
| Cc1noc(-c2cccc(-c3ccccc3CC(=O)O)c2)c1NC(=O)OC(C)c1ccccc1Cl (centres unmarked) [Compound 1-44, (3′-{4-[1-(2-Chloro-phenyl)-ethoxycarbonylamino]-3-methyl-isoxazol-5-yl}-biphenyl-2-yl)-acetic acid] | 1000 to 50000 nM |
| Cc1noc(-c2ccc(-c3ccccc3C(=O)O)cc2)c1NC(=O)OC(C)c1ccccc1Cl (centres unmarked) [Compound 1-52, 4′-{4-[1-(2-Chloro-phenyl)-ethoxycarbonylamino]-3-methyl-isoxazol-5-yl}-biphenyl-2-carboxylic acid] | 1000 to 50000 nM |
| Cc1noc(-c2ccc(Cc3cc(CC(=O)O)ccc3F)cc2)c1NC(=O)O[C@H](C)c1ccccc1F [Compound 1-82, [4-Fluoro-3-(4-{4-[(R)-1-(2-fluoro-phenyl)-ethoxycarbonylamino]-3-methyl-isoxazol-5-yl}-benzyl)-phenyl]-acetic acid] | 300 to 1000 nM |
| CCOC(=O)Cc1ccc(Oc2ccc(-c3onc(C)c3NC(=O)O[C@H](C)c3ccccc3F)cc2)cc1 [Compound 1-83, [4-(4-{4-[(R)-1-(2-Fluoro-phenyl)-ethoxycarbonylamino]-3-methyl-isoxazol-5-yl}-phenoxy)-phenyl]-acetic acid ethyl ester] | 300 to 1000 nM |
| Cc1noc(-c2ccc(-c3ccc(CC(=O)O)cc3)cc2)c1NC(=O)OC(C)c1c(Cl)cccc1Cl (centres unmarked) [Compound 1-101, (4′-{4-[1-(2,6-Dichloro-phenyl)-ethoxycarbonylamino]-3-methyl-isoxazol-5-yl}-biphenyl-4-yl)-acetic acid] | 1000 to 50000 nM |
| Cc1noc(-c2ccc(OCc3ccc(C(=O)O)cc3)cc2)c1NC(=O)O[C@H](C)c1ccccc1F [Compound 1-104, 4-(4-{4-[(R)-1-(2-Fluoro-phenyl)-ethoxycarbonylamino]-3-methyl-isoxazol-5-yl}-phenoxymethyl)-benzoic acid] | 1000 to 50000 nM |

Now from value to compound:

| IC50 | Structure (SMILES) |
| --- | --- |
| 300 to 1000 nM | Cc1noc(-c2ccc(Cc3cc(C(=O)O)ccc3Cl)cc2)c1NC(=O)OC(C)c1ccccc1Cl (centres unmarked) [Compound 1-14, 4-Chloro-3-(4-{4-[1-(2-chloro-phenyl)-ethoxycarbonylamino]-3-methyl-isoxazol-5-yl}-benzyl)-benzoic acid] |
| < 300 nM | Cc1noc(-c2ccc(CSc3cccc(CC(=O)O)c3)cc2)c1NC(=O)OC(C)c1ccccc1Cl (centres unmarked) [Compound 1-18, [3-(4-{4-[1-(2-Chloro-phenyl)-ethoxycarbonylamino]-3-methyl-isoxazol-5-yl}-benzylsulfanyl)-phenyl]-acetic acid] |
| < 300 nM | Cc1noc(-c2ccc(Cc3ccccc3CC(=O)O)cc2)c1NC(=O)OC(C)c1ccccc1Cl (centres unmarked) [Compound 1-22, [2-(4-{4-[1-(2-Chloro-phenyl)-ethoxycarbonylamino]-3-methyl-isoxazol-5-yl}-benzyl)-phenyl]-acetic acid] |
| 300 to 1000 nM | Cc1noc(-c2ccc(-c3ccc(CC(=O)O)cc3)cc2)c1NC(=O)OC(C)Cc1ccccc1 (centres unmarked) [Compound 1-29, {4′-[3-Methyl-4-(1-methyl-2-phenyl-ethoxycarbonylamino)-isoxazol-5-yl]-biphenyl-4-yl}-acetic acid] |
| 300 to 1000 nM | Cc1noc(-c2cccc(-c3ccccc3C(=O)O)c2)c1NC(=O)OC(C)c1ccccc1Cl (centres unmarked) [Compound 1-32, 3′-{4-[1-(2-Chloro-phenyl)-ethoxycarbonylamino]-3-methyl-isoxazol-5-yl}-biphenyl-2-carboxylic acid] |
| 300 to 1000 nM | Cc1noc(-c2cccc(-c3ccc(C(=O)O)nc3)c2)c1NC(=O)OC(C)c1ccccc1Cl (centres unmarked) [Compound 1-34, 5-(3-{4-[1-(2-Chloro-phenyl)-ethoxycarbonylamino]-3-methyl-isoxazol-5-yl}-phenyl)-pyridine-2-carboxylic acid] |
| 300 to 1000 nM | Cc1noc(-c2cccc(-c3cc(C(=O)O)ccn3)c2)c1NC(=O)OC(C)c1ccccc1Cl (centres unmarked) [Compound 1-35, 2-(3-{4-[1-(2-Chloro-phenyl)-ethoxycarbonylamino]-3-methyl-isoxazol-5-yl}-phenyl)-isonicotinic acid] |
| 300 to 1000 nM | Cc1noc(-c2cccc(-c3cccc(C(=O)O)n3)c2)c1NC(=O)OC(C)c1ccccc1Cl (centres unmarked) [Compound 1-36, 6-(3-{4-[1-(2-Chloro-phenyl)-ethoxycarbonylamino]-3-methyl-isoxazol-5-yl}-phenyl)-pyridine-2-carboxylic acid] |
| < 300 nM | Cc1noc(-c2cccc(C3CCC(C(=O)O)CC3)c2)c1NC(=O)OC(C)c1ccccc1Cl (centres unmarked) [Compound 1-46, 4-(3-{4-[1-(2-Chloro-phenyl)-ethoxycarbonylamino]-3-methyl-isoxazol-5-yl}-phenyl)-cyclohexanecarboxylic acid] |
| 300 to 1000 nM | CCOC(=O)Cc1ccc(-c2ccc(-c3onc(C)c3NC(=O)OC(C)c3ccccc3F)cn2)cc1 (centres unmarked) [Compound 1-47] |
| < 300 nM | Cc1noc(-c2ccc(-c3cncc(C(=O)O)c3)cc2)c1NC(=O)OC(C)c1ccccc1Cl (centres unmarked) [Compound 1-55, 5-(4-{4-[1-(2-Chloro-phenyl)-ethoxycarbonylamino]-3-methyl-isoxazol-5-yl}-phenyl)-nicotinic acid] |
| < 300 nM | CCOC(=O)C(C)c1ccc(-c2ccc(-c3onc(C)c3NC(=O)OC(C)c3ccccc3Cl)cc2)cc1 (centres unmarked) [Compound 1-70, 2-(4′-{4-[1-(2-Chloro-phenyl)-ethoxycarbonylamino]-3-methyl-isoxazol-5-yl}-biphenyl-4-yl)-propionic acid ethyl ester] |
| < 300 nM | Cc1noc(-c2ccc(-c3ccc(C(C)(C)C(=O)O)cc3)cc2)c1NC(=O)OC(C)c1ccccc1Cl (centres unmarked) [Compound 1-72, 2-(4′-{4-[1-(2-Chloro-phenyl)-ethoxycarbonylamino]-3-methyl-isoxazol-5-yl}-biphenyl-4-yl)-2-methyl-propionic acid] |
| < 300 nM | Cc1noc(-c2ccc(-c3ccc(CC(=O)O)cc3)cn2)c1NC(=O)OC(C)c1ccccc1Cl (centres unmarked) [Compound 1-73] |
| < 300 nM | Cc1noc(-c2ccc(-c3ccc(CCCC(=O)O)cc3)cc2)c1NC(=O)OC(C)c1ccccc1Cl (centres unmarked) [Compound 1-75, 4-(4′-{4-[1-(2-Chloro-phenyl)-ethoxycarbonylamino]-3-methyl-isoxazol-5-yl}-biphenyl-4-yl)-butyric acid] |
